Where a name gives a salt, the structure may show the parent alone.
Each compound was assayed against YKL-40 (Homo sapiens (Human), UniProt P36222) (assay: YKL-40:4 assay, competitive chitin binding site AlphaScreen). Details: competition with biotinylated compound 4 (20 nM), YKL-40-histag 2.5 nM.
YKL-40, sequence (P36222 22-383): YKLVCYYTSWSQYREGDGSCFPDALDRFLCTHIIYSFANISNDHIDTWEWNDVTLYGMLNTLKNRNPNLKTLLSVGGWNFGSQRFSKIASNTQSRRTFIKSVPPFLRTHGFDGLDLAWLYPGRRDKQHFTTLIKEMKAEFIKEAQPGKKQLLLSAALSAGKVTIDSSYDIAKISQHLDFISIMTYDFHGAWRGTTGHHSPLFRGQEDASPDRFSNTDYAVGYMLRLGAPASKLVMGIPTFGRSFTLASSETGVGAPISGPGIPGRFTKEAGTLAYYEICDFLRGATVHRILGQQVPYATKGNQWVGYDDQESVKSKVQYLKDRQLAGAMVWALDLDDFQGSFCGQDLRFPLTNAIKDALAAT

IC50 [µM]	Structure (SMILES)
> 100	C[C@H]1CN(C2CCN(c3ncns3)CC2)[C@@H](Cc2ccc(Cl)cc2)CO1 [compound 179, (2S,5S)-4-(1-(1,2,4-thiadiazol-5-yl)piperidin-4-yl)-5-(4-chlorobenzyl)-2-methylmorpholine 2,2,2-trifluoroacetate]
> 100	C[C@H]1CN(C2CCN(c3ncccc3O)CC2)[C@@H](Cc2ccc(Cl)cc2)CO1 [compound 160, 2-(4-((2S,5S)-5-(4-chlorobenzyl)-2-methylmorpholino)piperidin-1-yl)pyridin-3-ol 2,2,2-trifluoroacetate]
> 100	C[C@H]1CN(C2CCN(c3cccc(F)c3)CC2)[C@@H](Cc2ccc(Cl)cc2)CO1 [compound 127, (2S,5S)-5-(4-chlorobenzyl)-4-(1-(3-fluorophenyl)piperidin-4-yl)-2-methylmorpholine 2,2,2-trifluoroacetate]
10 to 100	C[C@H]1CN(C2CCN(c3ccnc(Br)c3)CC2)[C@@H](Cc2ccc(Cl)cc2)CO1 [compound 156, (2S,5S)-4-(1-(2-bromopyridin-4-yl)piperidin-4-yl)-5-(4-chlorobenzyl)-2-methylmorpholine hydrochloride]
> 100	C[C@H]1CN(C2CCN(c3cc(Cl)ccc3C#N)CC2)[C@@H](Cc2ccc(Cl)cc2)CO1 [compound 115, 4-chloro-2-(4-((2S,5S)-5-(4-chlorobenzyl)-2-methylmorpholino)piperidin-1-yl)benzonitrile 2,2,2-trifluoroacetate]
> 100	COC(=O)c1cccnc1N1CCC(N2C[C@H](C)OC[C@@H]2Cc2ccc(Cl)cc2)CC1 [compound 117, methyl 2-(4-((2S,5S)-5-(4-chlorobenzyl)-2-methylmorpholino)piperidin-1-yl)nicotinate 2,2,2-trifluoroacetate]
> 100	C[C@H]1CN(C2CCN(c3nncs3)CC2)[C@@H](Cc2ccc(Cl)cc2)CO1 [compound 181, (2S,5S)-4-(1-(1,3,4-thiadiazol-2-yl)piperidin-4-yl)-5-(4-chlorobenzyl)-2-methylmorpholine 2,2,2-trifluoroacetate]
> 100	C[C@H]1CN(C2CCN(c3nnn[nH]3)CC2)[C@@H](Cc2ccc(Cl)cc2)CO1 [compound 166, (2S,5S)-4-(1-(1H-tetrazol-5-yl)piperidin-4-yl)-5-(4-chlorobenzyl)-2-methylmorpholine 2,2,2-trifluoroacetate]
> 100	C[C@H]1CN(C2CCN(c3cc(C(C)(C)O)ccn3)CC2)[C@@H](Cc2ccc(Cl)cc2)CO1 [compound 131, 2-(2-(4-((2S,5S)-5-(4-chlorobenzyl)-2-methylmorpholino)piperidin-1-yl)pyridin-4-yl)propan-2-ol 2,2,2-trifluoroacetate]
> 100	CC(C)C1OC[C@H](Cc2ccc(Cl)cc2)N1C1CCN(c2ccccn2)CC1 (stereo partly drawn) [compound 150, (4S)-4-(4-chlorobenzyl)-2-isopropyl-3-(1-(pyridin-2-yl)piperidin-4-yl)oxazolidine hydrochloride]
> 100	C[C@H]1CN(C2CCN(c3ncnc(N(C)C)n3)CC2)[C@@H](Cc2ccc(Cl)cc2)CO1 [compound 175, 4-(4-((2S,5S)-5-(4-chlorobenzyl)-2-methylmorpholino)piperidin-1-yl)-N,N-dimethyl-1,3,5-triazin-2-amine 2,2,2-trifluoroacetate]
1 to 10	Cc1csc(N2CCC(N3C[C@H](C)OC[C@@H]3Cc3ccc(Cl)cc3)CC2)n1 [compound 184, (2S,5S)-5-(4-chlorobenzyl)-2-methyl-4-(1-(4-methylthiazol-2-yl)piperidin-4-yl)morpholine 2,2,2-trifluoroacetate]
0.1 to 1	C[C@H]1CN(C2CCN(c3cc(Br)ccn3)CC2)[C@@H](Cc2ccc(Cl)cc2)CO1 [compound 113, (2S,5S)-4-(1-(4-bromopyridin-2-yl)piperidin-4-yl)-5-(4-chlorobenzyl)-2-methylmorpholine 2,2,2-trifluoroacetate]
> 100	C[C@H]1CN(C2CCN(c3ncnc(N)n3)CC2)[C@@H](Cc2ccc(Cl)cc2)CO1 [compound 174, 4-(4-((2S,5S)-5-(4-chlorobenzyl)-2-methylmorpholino)piperidin-1-yl)-1,3,5-triazin-2-amine 2,2,2-trifluoroacetate]
> 100	C[C@H]1CN(C2CCN(c3ncnc(Cl)n3)CC2)[C@@H](Cc2ccc(Cl)cc2)CO1 [compound 169, (2S,5S)-4-(1-(4-chloro-1,3,5-triazin-2-yl)piperidin-4-yl)-5-(4-chlorobenzyl)-2-methylmorpholine 2,2,2-trifluoroacetate]

The remaining lines, values behind:

Structure (SMILES)	IC50 [µM]
CN(C)CCN(C)C[C@H]1CN(C2CCN(c3ncccn3)CC2)[C@@H](Cc2ccc(Cl)cc2)CO1 [compound 72, N^1-(((2S,5S)-5-(4-chlorobenzyl)-4-(1-(pyrimidin-2-yl)piperidin-4-yl)morpholin-2-yl)methyl)-N^1,N^2,N^2-trimethylethane-1,2-diamine 2,2,2-trifluoroacetate]	1 to 10
C[C@H]1CN(C2CCN(c3cc(C(F)(F)F)ccn3)CC2)[C@@H](Cc2ccc(Cl)cc2)CO1 [Example 20, (2S,5S)-5-(4-chlorobenzyl)-2-methyl-4-(1-(4-(trifluoromethyl)pyridin-2-yl)piperidin-4-yl)morpholine 2,2,2-trifluoroacetate]	1 to 10
O[C@@H]1C[C@H]2CN(C3CCN(c4ncccn4)CC3)[C@@H](Cc3ccc(Cl)cc3)CN2C1 [Example 40, (3S,7R,8aS)-3-(4-chlorobenzyl)-2-(1-(pyrimidin-2-yl)piperidin-4-yl)octahydropyrrolo[1,2-α]pyrazin-7-ol 2,2,2-trifluoroacetate]	0.1 to 1
C[C@H]1CN(C2CCN(c3ncc(F)cc3F)CC2)[C@@H](Cc2ccc(Cl)cc2)CO1 [Example 25, (2S,5S)-5-(4-chlorobenzyl)-4-(1-(3,5-difluoropyridin-2-yl)piperidin-4-yl)-2-methylmorpholine 2,2,2-trifluoroacetate]	> 100
CO[C@H]1CN(c2cc(Cl)ccn2)CC[C@@H]1N1C[C@H](C)OC[C@@H]1Cc1ccc(Cl)cc1 [compound 60, (2S,5S)-5-(4-chlorobenzyl)-4-((3S,4S)-1-(4-chloropyridin-2-yl)-3-methoxypiperidin-4-yl)-2-methylmorpholine 2,2,2-trifluoroacetate]	10 to 100
CN1CCN(C[C@H]2CN(C3CCN(c4cc(Cl)ccn4)CC3)[C@@H](Cc3ccc(Cl)cc3)CN2C)CC1 [compound 83, (2S,5S)-2-(4-chlorobenzyl)-1-(1-(4-chloropyridin-2-yl)piperidin-4-yl)-4-methyl-5-((4-methylpiperazin-1-yl)methyl)piperazine 2,2,2-trifluoroacetate]	< 0.1
Cc1ccnc(N2CCC(N3C[C@@H]4C[C@H](O)CN4C[C@@H]3Cc3ccc(Cl)cc3)CC2)n1 [Example 43, (3S,7S,8aS)-3-(4-chlorobenzyl)-2-(1-(4-methylpyrimidin-2-yl)piperidin-4-yl)octahydropyrrolo[1,2-α]pyrazin-7-ol 2,2,2-trifluoroacetate]	0.1 to 1
CC(=O)NC[C@H]1CN(C2CCN(c3ncccn3)CC2)[C@@H](Cc2ccc(Cl)cc2)CO1 [compound 75, N-(((2S,5S)-5-(4-chlorobenzyl)-4-(1-(pyrimidin-2-yl)piperidin-4-yl)morpholin-2-yl)methyl)acetamide 2,2,2-trifluoroacetate]	0.1 to 1
C[C@@H](O)[C@H]1CN(C2CCN(c3ccccn3)CC2)[C@@H](Cc2ccc(Cl)cc2)CN1C [compound 110, (R)-1-((2R,5S)-5-(4-chlorobenzyl)-1-methyl-4-(1-(pyridin-2-yl)piperidin-4-yl)piperazin-2-yl)ethan-1-ol]	< 0.1
C[C@H](O)[C@H]1CN(C2CCN(c3ccccn3)CC2)[C@@H](Cc2ccc(Cl)cc2)CN1C [compound 105, (S)-1-((2R,5S)-5-(4-chlorobenzyl)-1-methyl-4-(1-(pyridin-2-yl)piperidin-4-yl)piperazin-2-yl)ethan-1-ol 2,2,2-trifluoroacetate]	< 0.1
C[C@H]1CN(C2CCN(c3ccncc3)CC2)[C@@H](Cc2ccc(Cl)cc2)CO1 [Example 28, (2S,5S)-5-(4-chlorobenzyl)-2-methyl-4-(1-(pyridin-4-yl)piperidin-4-yl)morpholine 2,2,2-trifluoroacetate]	> 100
COC1(C)CCN(C2CCN(c3ccccn3)CC2)[C@@H](Cc2ccc(Cl)cc2)C1 (stereo partly drawn) [compound 91, (2S)-2-(4-chlorobenzyl)-4-methoxy-4-methyl-1′-(pyridin-2-yl)-1,4′-bipiperidine 2,2,2-trifluoroacetate]	< 0.1
C[C@H]1CN(C2CCN(c3ccccc3)CC2)[C@@H](Cc2ccc(Cl)cc2)CO1 [Example 37, (2S,5S)-5-(4-chlorobenzyl)-2-methyl-4-(1-phenylpiperidin-4-yl)morpholine dihydrochloride]	> 100
O[C@@H]1CCN(C[C@H]2CN(C3CCN(c4ncccn4)CC3)[C@@H](Cc3ccc(Cl)cc3)CO2)C1 [compound 73, (R)-1-(((2S,5S)-5-(4-chlorobenzyl)-4-(1-(pyrimidin-2-yl)piperidin-4-yl)morpholin-2-yl)methyl)pyrrolidin-3-ol 2,2,2-trifluoroacetate]	1 to 10
O[C@H]1C[C@H]2CN(C3CCN(c4ncccn4)CC3)[C@@H](Cc3ccc(Cl)cc3)CN2C1 [Example 42, (3S,7S,8aS)-3-(4-chlorobenzyl)-2-(1-(pyrimidin-2-yl)piperidin-4-yl)octahydropyrrolo[1,2-α]pyrazin-7-ol 2,2,2-trifluoroacetate]	0.1 to 1
O=C1CNC(=O)N1C[C@H]1CN(C2CCN(c3ncccn3)CC2)[C@@H](Cc2ccc(Cl)cc2)CO1 [compound 78, 3-(((2R,5S)-5-(4-chlorobenzyl)-4-(1-(pyrimidin-2-yl)piperidin-4-yl)morpholin-2-yl)methyl)imidazolidine-2,4-dione 2,2,2-trifluoroacetate]	1 to 10
CO[C@H]1CCN(C2CCN(c3ccccn3)CC2)[C@@H](Cc2ccc(Cl)cc2)C1 [compound 109, (2S,4S)-2-(4-chlorobenzyl)-4-methoxy-1′-(pyridin-2-yl)-1,4′-bipiperidine 2,2,2-trifluoroacetate]	0.1 to 1
Clc1ccc(C[C@H]2COc3ccccc3CN2C2CCN(c3ccccn3)CC2)cc1 [compound 81, (S)-3-(4-chlorobenzyl)-4-(1-(pyridin-2-yl)piperidin-4-yl)-2,3,4,5-tetrahydrobenzo[f][1,4]oxazepine hydrochloride]	> 100

Reference: patent US20230278996A1, “YKL-40 INHIBITORS AND THEIR THERAPEUTIC APPLICATIONS” (Molecure S.A., priority 2022, published 2023)
